Measurements from US10471043B2, “Compounds and methods of treating bacterial infections” (ULTUPHARMA AB, priority 2015, dated 2019).
Converted amounts (≈) assume the structure as drawn.

Tests used:
Format in all cases: cell-based
[1] = test system: E. faecalis; test: Antimicrobial Susceptibility Test by Broth Microdilution, M07-A9 CLSI; conditions: Enterococcus faecalis
[2] = test system: S. typhimurium; test: MIC panel of Gram-negative bacteria (Table 7); conditions: Salmonella enterica; EN0466 S. typhimurium G− TH6509
[3] = test system: K. oxytoca; test: MIC panel of Gram-negative bacteria (Table 7); conditions: Klebsiella oxytoca; EN0392 K. oxytoca G−

## CCCCCCCCCC1CC(O)=C(C(=O)CCC)C(=O)O1 (centres unmarked) [Ex. 1, 3-Butyryl-6-nonyl-4-hydroxy-5,6-dihydro-2H-pyran-2-one]
[1]; E. faecalis E.cocco 12, Vancomycin -resistant
  MIC: 2 µg/mL (≈ 6.44 µM)
[1]; E. faecalis E.cocco 24, Vancomycin -sensitive, Table 6
  MIC: 2 µg/mL (≈ 6.44 µM)
[1]; E. faecalis 24, Vancomycin-sensitive, Table 5
  MIC: 2 µg/mL (≈ 6.44 µM)
[2]
  MIC: > 64 µg/mL
[3]
  MIC: > 64 µg/mL
